Assay results as given in patent publication US20170202847A1, “METHODS FOR THE TREATMENT OF TUMORS” (The University of North Carolina at Chapel Hill, priority 2014, published 2017).
Entries after “also recorded” stand apart in the source; their conditions may differ. Read-outs that look alike come from different tables or passages of the source. Values belong to the compound of their own block, whether it stands above or below them.

Tests used:
[1] = Dose-finding and tolerability in mice, drug in chow; type: in vivo; conditions: for MTD: mouse, in vivo
Description: […]. AZD6244 is a MEK inhibitor that was administered in mouse chow at a predicted dose of 37 mg/kg (MTD). UNC2025 was administered in chow at a predicted dose of 120 mg/kg (MTD). […]. AZD6244 is a MEK inhibitor that was dosed in mouse chow at a predicted dose of 37 mg/kg (MTD). UNC2025 was dosed in chow at a predicted dose of 120 mg/kg (MTD).
. Once daily, oral dosing inhibits the growth of Mer-expressing leukemia and NSCLC xenografts. […]. After dose-finding studies in wild-type mice established an MTD, the inhibitor was given at 120 mpk/d in mouse chow. […]. The overall response was 10% (partial responses and stable disease). There were no complete responses. […]. […] See, FIG. 16A and FIG. 16B.

[2] = system: Colo699 (Mer+, FGFR+) and H226 (Mer+, FGFR+) NSCLC cells; test: Soft agar colony formation of NSCLC cells, Mer TKI and FGFR TKI; type: cell-based; conditions: 14 days
[3] = system: PyVmT mammary gland tumor cells; test: Orthotopic PyVmT mammary gland tumor model in immunocompetent C57Bl/6 mice; type: in vivo
Description: FIG. 10A is an immunoblot showing the presence of Mer TK in J774 murine macrophage and absence in PyVmT murine mammary tumor cells. FIGS. 10B and 10C illustrate the results from an immune-competent orthotopic model of Mer-negative breast cancer. […] FIG. 10B is a graph showing tumor volume (mm^3) verses days post-tumor injection.
FIG. 21A is a timeline illustrating a mouse model using PyVmT cells. […] Mice were dosed from day −2 to day 28. At day zero, 1×10^6 PyVmT cells were implanted into the inguinal mammary fatpad of mice. Tumor volumes were measured at days 16, 19, 21, 23, 26 and 28. Day 28 was the end of the study. FIG. 21B is a graph illustrating tumor volume […] verses days post-tumor injection.
See, FIGS. 10A-10C and FIGS. 21A and 21B.

[4] = system: HMCB and G361 melanoma cell lines; test: Apoptosis of melanoma cell lines by flow cytometry (YO-PRO-1 iodide/propidium iodide); type: cell-based
Description: (§1) See, FIG. 25A and FIG. 25B.

[5] = system: RAS-driven, INK4a/Arf null melanoma GEMM (TRIA); test: RAS-driven, INK4a/Arf null melanoma GEMM (TRIA); type: in vivo
Description: FIG. 14 is a waterfall plot showing percent change in tumor volumes verses days of treatment in the TRIA GEM model of melanoma. Mice were treated with UNC2025, AZD6244, Carbo/Taxol or received no treatment.
After dose-finding studies in wild-type mice established an MTD, the inhibitor was given at 120 mpk/d in mouse chow.

[6] = system: B-RAF wildtype (HMCB) and B-RAF mutant (G361) cell lines; test: Colony formation of melanoma cell lines; type: cell-based; conditions: for colony formation: HMCB and G361
Description: as §1

TRIA = TRIA tumors injected into NSG mice; type: in vivo; conditions: linear regression p<0.001
Description: FIG. 20A is a graph of tumor volume (mm^3) verses days. This is treatment of the intact GEMM. FIG. 20B is a graph illustrating the results from TRIA injected into NSG mice. The mice were then treated with no drug or UNC2025. […] In FIGS. 20A and 20B, both treated slopes were statistically significant compared to untreated slopes using linear regression p<0.001. FIG. 20C; Pten/Braf genetically engineered mice were treated with no drug or UNC2025. The graph illustrates tumor volumes (mm^3) verses days on treatment.

Pharmacokinetics in mice = conditions: mouse, in vivo
[7] = system: ERK, AKT, and STAT6 signaling downstream of MER; conditions: immunoblot
Description: Downstream signaling was evaluated by immunoblotting, and induction of apoptosis was determined by flow cytometry in cells stained with YO-PRO®-1 iodide and propidium iodide.

[8] = system: MER-expressing ALL cell lines; test: Apoptosis and colony formation in methylcellulose of ALL cell lines; type: cell-based
Mer = molecular target: T1, Mer (Homo sapiens, UniProt Q12866); test: Mer autophosphorylation in NSCLC cell lines by immunoblot; type: cell-based; conditions: numerous cell lines
T1 sequence (Q12866 21-999): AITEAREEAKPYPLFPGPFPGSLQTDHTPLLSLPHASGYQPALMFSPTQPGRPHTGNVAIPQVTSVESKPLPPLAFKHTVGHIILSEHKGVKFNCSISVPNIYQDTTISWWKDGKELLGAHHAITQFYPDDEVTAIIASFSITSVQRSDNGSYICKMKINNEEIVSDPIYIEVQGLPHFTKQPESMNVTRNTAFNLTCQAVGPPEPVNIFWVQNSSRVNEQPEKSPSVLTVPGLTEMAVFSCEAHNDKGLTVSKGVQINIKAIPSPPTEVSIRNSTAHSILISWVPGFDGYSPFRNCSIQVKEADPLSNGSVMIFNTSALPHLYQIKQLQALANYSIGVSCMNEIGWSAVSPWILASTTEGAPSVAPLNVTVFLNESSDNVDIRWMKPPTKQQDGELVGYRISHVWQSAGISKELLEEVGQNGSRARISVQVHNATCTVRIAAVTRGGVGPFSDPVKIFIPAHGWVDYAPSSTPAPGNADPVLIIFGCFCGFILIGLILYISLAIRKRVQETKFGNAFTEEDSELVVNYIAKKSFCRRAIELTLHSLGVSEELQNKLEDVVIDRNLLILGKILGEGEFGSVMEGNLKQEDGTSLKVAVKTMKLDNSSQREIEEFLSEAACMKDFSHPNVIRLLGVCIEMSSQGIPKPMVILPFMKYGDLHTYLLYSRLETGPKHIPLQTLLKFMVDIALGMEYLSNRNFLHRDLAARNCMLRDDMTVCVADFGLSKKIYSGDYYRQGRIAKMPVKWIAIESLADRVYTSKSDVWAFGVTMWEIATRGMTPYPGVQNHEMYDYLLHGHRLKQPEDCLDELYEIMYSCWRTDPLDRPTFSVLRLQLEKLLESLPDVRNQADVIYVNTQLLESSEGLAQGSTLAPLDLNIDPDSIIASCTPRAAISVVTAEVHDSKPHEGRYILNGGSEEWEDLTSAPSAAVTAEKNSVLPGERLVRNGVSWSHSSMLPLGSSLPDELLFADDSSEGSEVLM
Description: (§2) The effects of Mer TKI treatment on activation of Mer and related members of the TAM-family of kinases, Axl and Tyro3, and effects on downstream proliferative and pro-survival signaling pathways were analyzed by immunoblot. In addition, Mer TKI-mediated anti-tumor activity was determined in a panel of NSCLC cell lines using soft-agar and clonogenic assays. Cells were stained with YoPro-1-iodide and propidium iodide dyes and induction of apoptosis was determined using flow cytometry. Finally, a subcutaneous murine xenograft model was employed to determine therapeutic effects in vivo.

[9] = system: murine model of breast cancer (C3TAg); test: Murine model of breast cancer (C3TAg); type: in vivo; conditions: 120 mpk/d in chow
Colo699 cells = test: Subcutaneous murine xenograft model of NSCLC; type: in vivo
Description: FIG. 18A is a graph illustrating tumor volume verses days treated. Colo699 tumor cells were subcutaneously implanted in mice.
as §2

SKMEL119 melanoma cells = test: Invasion into collagen matrix; type: cell-based
[10] = mouse, in vivo
[11] = system: FLT3-ITD-positive (Molm-13 and MV4; 11) AML cell lines; test: Apoptosis of FLT3-ITD AML cell lines by flow cytometry; type: cell-based; conditions: vehicle 10±2%, p<0.001
Description: (§3) FLT-3 and MER tyrosine kinases have been previously identified as potential targets in the treatment of acute myeloid leukemia (AML). Expression of FLT-3 internal tandem duplication (ITD) occurs in ˜30-40% of AML patient samples and MER overexpression has been detected in ˜80-100%. In this example, a novel first-in-class small molecule inhibitor that has potent activity against both of these kinases and mediates growth inhibition or apoptosis of cell lines and patient myeloblasts is disclosed. […] See, FIGS. 4A-F.

[12] = system: MER-positive (Kasumi-1 and U937) AML cell lines; test: Soft agar colony formation of MER-positive AML cell lines; type: cell-based; conditions: vehicle = 100, p<0.01
Description: as §3

[13] = system: primary AML patient samples (MER and/or FLT3-ITD positive); test: Primary AML patient samples: phosphorylation, apoptosis, colony formation in methylcellulose; type: cell-based, human
Description: as §3

[14] = system: MER-positive (Kasumi-1 and U937) AML cell lines; test: Apoptosis of MER-positive AML cell lines by flow cytometry; type: cell-based; conditions: vehicle 20±10%, p<0.01
Description: as §3

AKT and STAT6 activation = AKT and STAT6 activation in AML cell lines; type: cell-based; conditions: short term exposure; cell lines expressing FLT3-ITD or MER
Description: as §3

[15] = compared to vehicle treated tumor-bearing mice

SMILES: Cn1cnc2c(F)c(Nc3ccc(Br)cc3Cl)c(C(=O)NOCCO)cc21 [AZD6244, reference compound]
- MTD [1]: 37 mg/kg

SMILES: COc1cc(CCc2cc(NC(=O)c3ccc(N4CC(C)NC(C)C4)cc3)n[nH]2)cc(OC)c1 (stereo not drawn) [AZD-4547, reference compound]
- colony formation in soft agar [2]: inhibited

SMILES: CCCCNc1ncc2c(-c3ccc(CN4CCN(C)CC4)cc3)cn([C@H]3CC[C@H](O)CC3)c2n1 [MRX6313]
- RNA-sequence data on immune cells ([3]; 3 mg/kg twice daily by oral gavage): increases pro-inflammatory cytokines in CD11b^+ cells and activates CD8^+ T cell effector function
- primary tumor growth reduction compared to vehicle ([3]; after four weeks of daily treatment): two-fold
- reduction of serum IL-4 level [3, 15]: 30%
- reduction of serum IL-10 level [3, 15]: 20%
- apoptosis [4]: induced apoptosis
- toxicity in the TRIA model ([5]; 120 mpk/d in chow): mild, well tolerated toxicity
- complete responses (CRs) ([5]; TRIA, 8 mice): 3
- single agent activity ([5]; TRIA, 120 mpk/d in chow): pronounced single agent activity
- percent change in tumor volumes, waterfall plot, ranking ([5]; versus AZD6244, Carbo/Taxol, no treatment): best response
- concentration resulting in an almost complete block in colony formation ([6]; B-RAF wild-type and B-RAF mutant cell lines): ≥ 300 nM
- colony formation [6]: reduced colony growth
- median survival (B-ALL xenograft; days after inoculation with tumor cells, vehicle 27 days, p<0.0001): 70 days
- tumor burden (B-ALL xenograft; minimal residual disease model): dose dependent reduction in tumor burden
- tumor volumes versus control (TRIA): significantly reduced
- Mer pharmacodynamics marker (platelet aggregation) ([1]; 120 mpk/d in mouse chow): inhibition of second phase platelet aggregation
- weight loss ([1]; 120 mpk/d in mouse chow): did not cause weight loss
- MTD ([1]; oral, administered in chow, read-out: MTD, predicted dose in mouse chow): 120 mg/kg
- oral bioavailability / pharmacokinetics (Pharmacokinetics in mice): orally bioavailable; also recorded: favorable pharmacokinetics
- downstream signaling [7]: abrogates signaling downstream of MER
- apoptosis and colony-formation in methylcellulose [8]: induction of apoptosis and reduced colony-formation
- concentrations that blocked Mer autophosphorylation (Mer): sub-micromolar
- single agent activity [9]: did not exhibit single agent activity
- colony formation in soft agar [2]: inhibited
- tumor volume (Colo699 cells): significant decrease in tumor volume

- oral bioavailability / pharmacokinetics [10]: orally bioavailable
SMILES: CCCCNc1ncc2c(-c3ccc(S(=O)(=O)N4CCOCC4)cc3)nn(C3CCC(O)CC3)c2n1 (stereo not drawn) [UNC1062]
- invasion into collagen matrix (SKMEL119 melanoma cells): reduced invasion
- colony formation [6]: reduced colony formation

SMILES: CCCCNc1ncc2c(-c3ccc(S(=O)(=O)N4CCOCC4)cc3)cn(C3CCC(O)CC3)c2n1 (stereo not drawn) [UNC1666]
- apoptotic cells [11]: 90±6%
- relative colony counts [12]: 34±15
- Mer and Flt3 kinase phosphorylation and downstream signaling ([13]; leukemic blasts from a patient with AML, 50, 100 and 300 nM): abrogates
- colony formation in methylcellulose ([13]; six primary patient samples): near complete inhibition of colony formation
- induction of apoptosis ([13]; six primary patient samples): dose-dependent induction of apoptosis
- apoptotic cells [14]: 66±10%
- AKT and STAT6 activation (AKT and STAT6 activation): dose-dependent decrease
